How the values were obtained:
Test in all cases: relative viability (nuclei count vs DMSO), 5 days (fraction); higher = more cells survive
XMD8-85 + Lapatinib = compound: CN1CCN(CC1)C2=CC(=C(C=C2)NC3=NC=C4C(=N3)N(C5=CC=CC=C5C(=O)N4C)C)OC [XMD8-85] + CS(=O)(=O)CCNCc1ccc(-c2ccc3ncnc(Nc4ccc(OCc5cccc(F)c5)c(Cl)c4)c3c2)o1 [Lapatinib] (partner 2 µM)
Procedure, shortened: (§1)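 Values are medians from duplicate plates. Each reflects relative viability, defined as the nuclei count of treated wells over that of vehicle wells. Lung cancer cell lines in 1536-well plates were pin-tool dosed one day after seeding with one drug alone or with a fixed anchor-drug dose plus five library-drug doses (not always all listed) in √10 steps, then fixed, stained and imaged at 4× after 5 days.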

XMD8-85 + Olaparib = compound: CN1CCN(CC1)C2=CC(=C(C=C2)NC3=NC=C4C(=N3)N(C5=CC=CC=C5C(=O)N4C)C)OC [XMD8-85] + O=C(c1cc(Cc2n[nH]c(=O)c3ccccc23)ccc1F)N1CCN(C(=O)C2CC2)CC1 [Olaparib] (partner 8 µM)
Procedure, shortened: as §1

XMD8-85 + Bortezomib = compound: CN1CCN(CC1)C2=CC(=C(C=C2)NC3=NC=C4C(=N3)N(C5=CC=CC=C5C(=O)N4C)C)OC [XMD8-85] + CC(C)C[C@H](NC(=O)[C@H](Cc1ccccc1)NC(=O)c1cnccn1)B(O)O [Bortezomib] (partner 0.002 µM)
Procedure, shortened: as §1

XMD8-85 + Tozasertib = compound: CN1CCN(CC1)C2=CC(=C(C=C2)NC3=NC=C4C(=N3)N(C5=CC=CC=C5C(=O)N4C)C)OC [XMD8-85] + Cc1cc(Nc2cc(N3CCN(C)CC3)nc(Sc3ccc(NC(=O)C4CC4)cc3)n2)n[nH]1 [Tozasertib] (partner 0.1 µM)
Procedure, shortened: as §1

Row | Cell Line | relative viability (XMD8-85 + Lapatinib; first compound 0.08 µM) | relative viability (XMD8-85 + Lapatinib; first compound 0.253 µM) | relative viability (XMD8-85 + Lapatinib; first compound 0.8 µM) | relative viability (XMD8-85 + Lapatinib; first compound 2.53 µM) | relative viability (XMD8-85 + Lapatinib; first compound 8 µM) | relative viability (XMD8-85 + Olaparib; first compound 0.08 µM) | relative viability (XMD8-85 + Olaparib; first compound 0.253 µM) | relative viability (XMD8-85 + Olaparib; first compound 0.8 µM) | relative viability (XMD8-85 + Olaparib; first compound 2.53 µM) | relative viability (XMD8-85 + Olaparib; first compound 8 µM) | relative viability (XMD8-85 + Bortezomib; first compound 0.08 µM) | relative viability (XMD8-85 + Bortezomib; first compound 0.253 µM) | relative viability (XMD8-85 + Bortezomib; first compound 0.8 µM) | relative viability (XMD8-85 + Bortezomib; first compound 2.53 µM) | relative viability (XMD8-85 + Bortezomib; first compound 8 µM) | relative viability (XMD8-85 + Tozasertib; first compound 0.08 µM) | relative viability (XMD8-85 + Tozasertib; first compound 0.253 µM) | relative viability (XMD8-85 + Tozasertib; first compound 0.8 µM) | relative viability (XMD8-85 + Tozasertib; first compound 2.53 µM) | relative viability (XMD8-85 + Tozasertib; first compound 8 µM)
1 | NCI-H1437 | 0.785 | 0.888 | 0.804 | 0.792 | 0.407 | 0.611 | 0.62 | 0.657 | 0.611 | 0.439 | 0.497 | 0.443 | 0.438 | 0.541 | 0.378 | 0.408 | 0.415 | 0.401 | 0.329 | 0.221
2 | NCI-H1650 | 0.729 | 0.819 | 0.92 | 0.671 | 0.281 | 0.877 | 0.91 | 0.951 | 0.699 | 0.303 | 0.26 | 0.197 | 0.192 | 0.173 | 0.179 | 0.358 | 0.409 | 0.413 | 0.216 | 0.177
3 | NCI-H1651 | 0.764 | 0.842 | 0.96 | 0.977 | 0.555 | 0.166 | 0.19 | 0.181 | 0.172 | 0.16 | 1.08 | 0.946 | 0.882 | 0.903 | 0.875 | 0.717 | 0.818 | 0.68 | 0.436 | 0.307
4 | NCI-H1666 | 0.58 | 0.709 | 0.92 | 0.816 | 0.499 | 0.697 | 0.716 | 0.742 | 0.773 |  | 0.831 | 0.754 | 0.745 | 0.735 |  | 0.579 | 0.641 | 0.637 | 0.601 | 0.464
5 | NCI-H1734 | 1.05 | 0.977 | 1.03 | 1.17 | 0.987 | 0.672 | 0.616 | 0.629 |  | 0.508 | 0.808 | 0.936 | 0.917 | 1.03 | 0.649 | 0.252 | 0.248 | 0.291 | 0.257 | 0.237
6 | NCI-H1755 | 0.943 | 1.1 | 1.05 | 1.17 | 0.996 | 0.974 | 0.906 | 0.862 | 0.85 | 0.899 | 0.97 | 1.14 | 0.918 | 1.06 | 0.806 | 0.627 | 0.571 | 0.589 | 0.584 | 0.436
7 | NCI-H1915 | 0.954 | 1.01 | 1.09 | 0.986 | 0.921 | 0.291 | 0.263 | 0.252 | 0.222 | 0.185 | 0.67 | 0.923 | 0.942 | 0.986 | 0.945 | 0.434 | 0.404 | 0.494 | 0.389 | 0.296
8 | NCI-H1975 | 0.897 | 0.832 | 0.886 | 1.1 | 0.441 | 0.774 | 0.784 | 0.88 | 0.711 | 0.376 | 0.443 | 0.36 | 0.378 | 0.297 | 0.222 | 0.701 | 0.721 | 0.763 | 0.485 | 0.145
9 | NCI-H1993 | 0.662 | 0.755 | 0.93 | 0.819 | 0.774 |  | 0.942 | 1 | 1.07 | 0.792 | 0.965 | 0.958 | 1.08 | 1.29 | 1.07 | 0.583 | 0.628 | 0.56 | 0.557 | 0.546
10 | NCI-H2009 | 0.934 | 0.931 | 1.01 | 0.841 | 0.456 | 0.776 | 0.748 | 0.779 | 0.544 | 0.268 | 0.98 | 0.931 | 1.16 | 0.988 | 0.352 | 0.727 | 0.696 | 0.703 | 0.416 | 0.308
11 | NCI-H2023 | 0.649 | 0.755 | 0.957 | 1.02 | 0.516 | 0.42 | 0.452 | 0.508 | 0.487 | 0.285 | 0.881 | 0.992 | 1.07 | 1.13 | 0.575 | 0.266 | 0.355 | 0.432 | 0.335 | 0.163
12 | NCI-H2085 | 0.791 | 0.778 | 0.815 | 0.719 | 0.566 | 0.729 | 0.743 | 0.77 | 0.725 | 0.699 | 0.92 | 1.03 | 1.18 | 0.95 |  | 0.745 | 0.913 | 0.791 | 0.644 | 0.502
13 | NCI-H2087 | 1.01 | 1.08 | 1.05 | 1.12 | 0.974 | 0.527 | 0.688 | 0.7 |  | 0.533 | 0.827 | 0.869 |  | 1.11 | 0.729 | 0.265 | 0.223 | 0.238 | 0.245 | 0.177
14 | NCI-H2126 | 0.705 | 0.714 | 0.757 | 0.837 | 0.646 | 0.958 | 0.897 | 0.954 | 0.889 | 0.94 | 1.04 | 1.13 | 1.18 | 1.15 | 1.12 | 0.831 | 0.843 | 0.901 | 0.735 | 0.533
15 | NCI-H2228 | 0.827 | 0.93 | 1.14 |  | 0.549 | 0.629 | 0.338 | 0.649 | 0.655 | 0.331 | 1.15 | 0.872 | 0.924 | 1.04 | 0.582 | 0.194 | 0.261 | 0.267 | 0.207 | 0.197
16 | NCI-H2347 | 0.892 | 0.958 | 0.9 | 1.02 | 0.771 | 0.55 | 0.598 | 0.617 | 0.619 | 0.559 | 1.2 | 1.09 | 0.824 | 0.921 | 0.407 | 0.497 | 0.438 | 0.545 | 0.516 | 0.386

Reference: the supplement of paper PMC10307832
